Data on seven molecules can be found in ChEMBL document CHEMBL4229457, “Mechanism underlying inhibitory effect of six dicaffeoylquinic acid isomers on melanogenesis and the computational molecular modeling studies” (Bioorg Med Chem, 2018).

The source made the active and inactive calls. The calls are words filed in the database; no cut-off is given here.

For series [1], the system named is B16-F1. Briefly: Inhibition of adenylate cyclase in alpha-MSH-stimulated mouse B16-F1 cells assessed as reduction in cAMP-CREB signaling pathway-mediated TYR expression level at 25 uM after 48 to 72 hrs by Western blot analysis. Type of series: cell-based. Background: In western blotting, separated proteins are transferred to a membrane and probed.
In series [2] the test system is B16-F1. Put plainly: Inhibition of alpha-MSH-stimulated melanogenesis in mouse B16-F1 cells assessed as reduction in intracellular melanin production at 25 uM after 72 hrs relative to control. Type of series: functional. To be noted: B16-F1, 72 h.
In series [3] the target is T1, Tyrosinase (Mus musculus) (UniProt P11344).
T1 sequence (whole entry): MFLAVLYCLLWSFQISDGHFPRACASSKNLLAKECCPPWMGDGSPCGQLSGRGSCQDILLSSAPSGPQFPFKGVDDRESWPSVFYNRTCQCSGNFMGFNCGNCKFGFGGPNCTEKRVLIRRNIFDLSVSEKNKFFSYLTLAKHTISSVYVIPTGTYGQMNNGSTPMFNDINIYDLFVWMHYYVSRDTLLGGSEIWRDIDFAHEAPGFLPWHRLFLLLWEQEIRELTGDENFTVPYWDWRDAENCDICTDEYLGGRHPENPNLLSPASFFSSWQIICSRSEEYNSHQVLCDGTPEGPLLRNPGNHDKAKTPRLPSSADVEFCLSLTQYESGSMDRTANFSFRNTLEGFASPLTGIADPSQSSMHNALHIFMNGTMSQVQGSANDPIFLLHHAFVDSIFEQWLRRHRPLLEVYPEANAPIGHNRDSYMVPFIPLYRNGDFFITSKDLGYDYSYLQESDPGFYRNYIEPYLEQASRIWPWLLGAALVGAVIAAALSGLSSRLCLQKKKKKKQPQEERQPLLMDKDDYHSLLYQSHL
To be noted: at 25 µM.
Description: Inhibition of tyrosinase in mouse B16-F1 cell lysates assessed as reduction in melanin production at 25 uM using L-DOPA as substrate incubated for 30 mins followed by substrate addition measured after 30 mins

For series [4], the system named is B16-F1. Briefly: Cytotoxicity against mouse B16-F1 cells assessed as reduction in cell viability at 25 uM after 72 hrs by MTT assay. The conditions noted are these: b16-f1, 72 h. Type of series: cell-based. Background: Tetrazolium assays rely on reduction of a dye to a coloured formazan, in cell work by metabolically active cells.
In series [5] the test system is B16-F1. Briefly: Inhibition of adenylate cyclase in alpha-MSH-stimulated mouse B16-F1 cells assessed as reduction in cAMP-CREB signaling pathway-mediated DCT expression level at 25 uM after 48 to 72 hrs by Western blot analysis. Type of series: cell-based.
For series [6], the system named is B16-F1. Briefly: Inhibition of adenylate cyclase in alpha-MSH-stimulated mouse B16-F1 cells assessed as reduction in cAMP-CREB signaling pathway-mediated TRP1 expression level at 25 uM after 48 to 72 hrs by Western blot analysis. Type of series: cell-based.
Series [7] has as its system B16-F1. Briefly: Inhibition of adenylate cyclase in alpha-MSH-stimulated mouse B16-F1 cells assessed as reduction in cAMP-CREB signaling pathway-mediated MITF expression level at 25 uM after 48 to 72 hrs by Western blot analysis. Type of series: cell-based.
Series [8] can be described thus: Inhibition of melanogenesis in HEMn assessed as reduction in intracellular melanin production at 25 uM after 72 hrs relative to control. It counts as functional. To be noted: Homo sapiens.
A short description of series [9]: Inhibition of melanogenesis in HEMn assessed as reduction in intracellular melanin production at 10 uM after 72 hrs relative to control. Type of series: functional. To be noted: Homo sapiens.
In series [10] the test system is B16-F1. Put plainly: Inhibition of adenylate cyclase in alpha-MSH-stimulated mouse B16-F1 cells assessed as reduction in CREB phosphorylation at 25 uM measured up to 360 mins by Western blot analysis. Type of series: cell-based.
For series [11], the target named is T2, Tyrosinase (Homo sapiens) (UniProt P14679).
T2 sequence (whole entry): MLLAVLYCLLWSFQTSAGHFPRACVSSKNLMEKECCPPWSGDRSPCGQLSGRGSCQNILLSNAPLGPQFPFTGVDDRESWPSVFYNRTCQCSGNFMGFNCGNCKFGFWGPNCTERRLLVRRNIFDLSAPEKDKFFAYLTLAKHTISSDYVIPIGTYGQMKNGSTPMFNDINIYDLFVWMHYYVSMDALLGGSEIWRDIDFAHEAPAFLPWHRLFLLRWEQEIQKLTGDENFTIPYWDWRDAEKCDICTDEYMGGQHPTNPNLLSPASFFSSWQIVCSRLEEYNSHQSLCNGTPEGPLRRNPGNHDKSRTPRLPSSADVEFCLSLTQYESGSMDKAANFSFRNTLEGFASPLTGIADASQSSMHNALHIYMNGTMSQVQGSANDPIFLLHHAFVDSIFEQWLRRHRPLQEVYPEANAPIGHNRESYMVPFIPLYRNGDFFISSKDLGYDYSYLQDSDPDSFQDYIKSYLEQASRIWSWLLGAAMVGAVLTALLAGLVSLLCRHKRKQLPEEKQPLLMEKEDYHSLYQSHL
Put plainly: Inhibition of tyrosinase in HEMn lysates assessed as reduction in melanin production using L-DOPA as substrate incubated for 30 mins followed by substrate addition measured after 30 mins.

For series [12], the species on record is Mus musculus. Put plainly: Inhibition of adenylate cyclase in mouse B16-F1 cell lysates assessed as reduction in alpha-MSH-induced cAMP levels incubated for 6 hrs followed by forskolin stimulation measured after 30 mins by immuno assay.
Series [13] deals with B16-F1. Briefly: Downregulation of adenylate cyclase protein expression level in alpha-MSH-stimulated mouse B16-F1 cells at 25 uM by Western blot analysis. Type of series: functional, cell-based.
The nature of series [14]: Inhibition of melanogenesis in HEMn assessed as reduction in intracellular melanin production at 1 uM after 72 hrs relative to control. Type of series: functional. To be noted: Homo sapiens.
For series [15], the species on record is Mus musculus. Put plainly: Inhibition of adenylate cyclase in mouse B16-F1 cell lysates assessed as reduction in forskolin-induced cAMP levels incubated for 6 hrs followed by forskolin stimulation measured after 30 mins by immuno assay. (In general: Cyclic AMP is a second messenger, typically raised through Gs and lowered through Gi signalling.)
A short description of series [16]: Inhibition of melanogenesis in HEMn assessed as reduction in intracellular melanin production at 5 uM after 72 hrs relative to control. Type of series: functional. The conditions noted are these: Homo sapiens.

A word on the inhibition: it is how much of the control response was suppressed. On to `O=C(/C=C/c1ccc(O)c(O)c1)O[C@H]1C[C@@](OC(=O)/C=C/c2ccc(O)c(O)c2)(C(=O)O)C[C@H](O)[C@@H]1O`, for which the inhibition in series [1] was 66%; in [3], > 20%. In addition, in series [2], the inhibition at 25 µM turned out to be 26%. Besides, the Activity entry in series [4] is listed as “Non-Toxic”. Besides, the inhibition result in series [5] was “Active”.

On to `O=C(/C=C/c1ccc(O)c(O)c1)O[C@@H]1C[C@@](OC(=O)/C=C/c2ccc(O)c(O)c2)(C(=O)O)C[C@@H](O)[C@@H]1O` [CYNARIN], for which the inhibition is 72% in [1] and > 20% in [3]. For the same molecule, the inhibition at 25 µM in [2] was 61%. Also, the Activity entry in [4] is recorded as “Non-Toxic”. Besides, the inhibition entry in series [5] was “Active”.

Regarding `OC[C@H]1O[C@@H](Oc2ccc(O)cc2)[C@H](O)[C@@H](O)[C@@H]1O` [ARBUTIN], the inhibition at 25 µM in [2] was 34%. Moreover, the inhibition result in series [3] was “Active”.

As for `O=C(/C=C/c1ccc(O)c(O)c1)O[C@@H]1[C@H](O)C[C@@](O)(C(=O)O)C[C@H]1OC(=O)/C=C/c1ccc(O)c(O)c1`, the inhibition result in series [1] and in [5] was “Active” throughout. Moreover, the inhibition at 25 µM in [2] was 26%. In series [3], the inhibition is > 20%. Also, in series [4], the Activity result was “Non-Toxic”.

Regarding `O=C(/C=C/c1ccc(O)c(O)c1)O[C@@H]1C[C@](O)(C(=O)O)C[C@@H](OC(=O)/C=C/c2ccc(O)c(O)c2)[C@H]1O`, the inhibition result in [6], in [1], in [7] and in series [5] was “Active” throughout. For the same molecule, the inhibition at 25 µM in series [2] stood at 26%. In series [3], the inhibition was > 20%. Besides, the Activity entry in series [4] is on record as “Non-Toxic”.

Turning to `O=C(/C=C/c1ccc(O)c(O)c1)O[C@H]1[C@H](O)C[C@@](O)(C(=O)O)C[C@H]1OC(=O)/C=C/c1ccc(O)c(O)c1`, the inhibition entry in series [6], in series [10], in series [1] and in series [5] was “Active” throughout. For the same molecule, the inhibition at 25 µM in series [8] is 51.2%; in series [2], 84%. Further, the inhibition at 10 µM in [9] amounted to 25.8%. Moreover, the inhibition result in [11] was “Dose-dependent effect”; in series [12], “Dose-dependent effect”; in [7], 91%; in [3], > 20%; in [15], “Dose-dependent effect”. In addition, the result in series [13] was inactive. For the same molecule, in [14], the inhibition at 1 µM stood at 7.7%. For the same molecule, the Activity result in [4] is reported as “Non-Toxic”. In [16], the inhibition at 5 µM was 11.2%.

Turning to `O=C(/C=C/c1ccc(O)c(O)c1)OC1[C@H](O)CC(OC(=O)/C=C/c2ccc(O)c(O)c2)(C(=O)O)C[C@@H]1O` (stereo not given in full), the inhibition is 92% in series [1] and > 20% in series [3]. Moreover, the inhibition at 25 µM in [2] came out at 18%. For the same molecule, the Activity entry in series [4] is listed as “Non-Toxic”. For the same molecule, the inhibition result in series [5] is “Active”.
